From patent US20170112896A1, “SMALL MOLECULE RAC OR RHO INHIBITORS” (Ohio State Innovation Foundation, priority 2014, published 2017)
Where two headings read alike, the source gives them in different places. Square brackets hold non-standard residues; d marks the D form. Side chains are listed from the residue outwards. Peptide text beside a SMILES is read from it. * marks the point of attachment. His(τ-Bzl) = N[C@@H](Cc1cn(Cc2ccccc2)cn1)C(=O)O; Phe(3,4-F2) = N[C@@H](Cc1ccc(F)c(F)c1)C(=O)O; Phe(4-F) = N[C@@H](Cc1ccc(F)cc1)C(=O)O; 2Nal = N[C@@H](Cc1ccc2ccccc2c1)C(=O)O; d2Nal = N[C@H](Cc1ccc2ccccc2c1)C(=O)O; Tle = CC(C)(C)[C@H](N)C(=O)O; dNle = CCCC[C@@H](N)C(=O)O; Nle = CCCC[C@H](N)C(=O)O; X4 = O=C(c1ccc(Cl)nc1)*; Dap = NC[C@H](N)C(=O)O

How the values were obtained:
H1299 lung cancer cells = format: cell-based; conditions: for IC50: 72 h; for anti-proliferative activity against lung cancer cells (in words): MTT assay
Procedure: MTT assays (Mosmann, T. (1983) J. Immunol. Methods 65:55) were performed with H1299 lung cancer cells. One hundred μL of H1299 cells (0.5×10^5 cells/mL) were seeded in each well of a 96-well culture plate and allowed to grow overnight in Advanced RPMI medium supplemented with 10% fetal bovine serum (FBS) and 1% penicillin-streptomycin. Varying concentrations of cyclic peptide (0-25 μM) were added to the each well and the cells were incubated at 37° C. with 5% CO2 for 72 hours. Ten μL of a MTT stock solution (Roche) was added into each well. The plate was incubated at 37° C. for 4 h. Then 100 μL of SDS-HCl solubilizing buffer was added into each well, and the resulting solution was mixed thoroughly. The plate was incubated at 37° C. overnight. The absorbance of the formazan product was measured at 570 nm using a Molecular Devices Spectramax M5 plate reader. Each experiment was performed in triplicates and the cells without any peptide added were treated as control.

[1] = target: T1, Ras(G12V)-Raf RBD interaction (Homo sapiens, UniProt P01116, G12V); experiment: HTRF assay, inhibition of Ras-Raf RBD interaction; format: binding; conditions: for IC50: read-out: HTRF IC50; for increase of Ras binding affinity by substitution: relative to parent 9A5/9A6
T1 construct: The G12V mutant K-Ras (amino acids 1-185) was recombinantly fused to glutathione 5-transferase (GST) at its N-terminus; GST (N, cleaved yes); made in house; host or cells: Escherichia coli BL21
Procedure: Recombinant HA-tagged K-Ras (no GST, 50 nM), GST-Raf RBD (50 nM each), a monoclonal anti-HA antibody labeled with acceptor d2 (2 μg/mL), a monoclonal anti-GST antibody labeled with donor Tb (0.25 μg/mL) (Cisbio), and increasing concentrations of cyclic peptide (0-20 μM) were mixed in PBS (total volume of 20 μL) in a 384-well plate. The plate was incubated overnight at 4° C. and the HTRF signal was measured on a Molecular Devices Spectramax M5 or a Tecan infinite M1000 Pro plate reader. The data were analyzed by Prism 6.0 from Graphpad Software, Inc. (La Jolla, Calif.) and IC50 values were obtained by fitting the data to dose-response-inhibition curve.

[2] = inhibition of Ras-Raf interaction, unlabeled peptide

T1 sequence (P01116 1-185 isoform P01116-2 G12V): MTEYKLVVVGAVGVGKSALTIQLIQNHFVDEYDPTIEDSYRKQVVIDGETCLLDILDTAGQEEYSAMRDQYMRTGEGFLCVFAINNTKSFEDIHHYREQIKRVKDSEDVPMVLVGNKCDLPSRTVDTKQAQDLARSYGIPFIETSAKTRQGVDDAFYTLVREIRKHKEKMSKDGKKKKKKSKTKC

| SMILES | IC50 (H1299 lung cancer cells) [µM] | other results |
| --- | --- | --- |
| CCCC[C@H](NC(=O)CC[C@@H]1NC(=O)[C@@H](C)NC(=O)[C@H]([C@@H](C)O)NC(=O)[C@H](Cc2c[nH]c3ccccc23)NC(=O)[C@H](CCC(N)=O)NC(=O)[C@@H](CCCC)NC(=O)[C@H](Cc2ccc(F)cc2)NC(=O)[C@H](CCCNC(=N)N)NC(=O)[C@@H](Cc2ccc3ccccc3c2)NC(=O)[C@H](CCCNC(=N)N)NC(=O)[C@H](CCCNC(=N)N)NC1=O)C(N)=O [Cyclorasin 9A4] (cyclo(RR[d2Nal]R[Phe(4-F)][dNle]QWT[dA]E([Nle-NH2]))) | – | IC50 [1, 2]: 0.5 ± 0.1 µM |
| CCCC[C@H]1NC(=O)[C@H](Cc2ccc(F)cc2)NC(=O)[C@H](CCCNC(=N)N)NC(=O)[C@@H](Cc2ccc3ccccc3c2)NC(=O)[C@H](CCCNC(=N)N)NC(=O)[C@H](CCCNC(=N)N)NC(=O)[C@H](CCCNC(=N)N)NC(=O)[C@@H](C)NC(=O)[C@H]([C@@H](C)O)NC(=O)[C@H](Cc2cn(Cc3ccccc3)cn2)NC(=O)[C@H](CCC(N)=O)NC1=O [Cyclorasin 9A7] (cyclo([Phe(4-F)][dNle]Q[His(τ-Bzl)]T[dA]RRR[d2Nal]R)) | 10 ± 1 | – |
| CCCC[C@H]1NC(=O)[C@H](Cc2ccc(O)cc2)NC(=O)[C@H](CCCNC(=N)N)NC(=O)[C@@H](Cc2ccc3ccccc3c2)NC(=O)[C@H](CCCNC(=N)N)NC(=O)[C@H](CCCNC(=N)N)NC(=O)[C@@H](CCCNC(=N)N)NC(=O)[C@@H](C)NC(=O)[C@H]([C@@H](C)O)NC(=O)[C@H](Cc2c[nH]c3ccccc23)NC(=O)[C@H](CCC(N)=O)NC1=O [Cyclorasin 9A13] (cyclo(QWT[dA][dR]RR[d2Nal]RY[dNle])) | – | IC50 [1, 2]: > 20 µM |
| CCCC[C@H]1NC(=O)[C@H](Cc2ccc(F)cc2)NC(=O)[C@H](CCCNC(=N)N)NC(=O)[C@@H](Cc2ccc3ccccc3c2)NC(=O)[C@H](CCCNC(=N)N)NC(=O)[C@H](CCCNC(=N)N)NC(=O)[C@@H](CCCNC(=N)N)NC(=O)[C@@H](C(C)C)NC(=O)[C@H]([C@@H](C)O)NC(=O)[C@H](Cc2c[nH]c3ccccc23)NC(=O)[C@H](CCC(N)=O)NC1=O [Cyclorasin 9A14] (cyclo(WT[dV][dR]RR[d2Nal]R[Phe(4-F)][dNle]Q)) | 5.4 ± 2.4 | increase of Ras binding affinity by substitution [1]: 2 fold |
| CCCC[C@H]1NC(=O)[C@H](Cc2ccc(F)cc2)NC(=O)[C@H](CCCNC(=N)N)NC(=O)[C@@H](Cc2ccc3ccccc3c2)NC(=O)[C@H](CCCNC(=N)N)NC(=O)[C@H](CCCNC(=N)N)NC(=O)[C@@H](CCCNC(=N)N)NC(=O)[C@@H](C)NC(=O)[C@H](C(C)(C)C)NC(=O)[C@H](Cc2c[nH]c3ccccc23)NC(=O)[C@H](CCC(N)=O)NC1=O [Cyclorasin 9A16] (cyclo(W[Tle][dA][dR]RR[d2Nal]R[Phe(4-F)][dNle]Q)) | 3.5 ± 0.6 | increase of Ras binding affinity by substitution [1]: 2 fold |
| CCCC[C@H]1NC(=O)[C@H](CNC(=O)c2ccc(Cl)nc2)NC(=O)[C@H](CCCNC(=N)N)NC(=O)[C@@H](Cc2ccc3ccccc3c2)NC(=O)[C@H](CCCNC(=N)N)NC(=O)[C@H](CCCNC(=N)N)NC(=O)[C@H](CCCNC(=N)N)NC(=O)[C@@H](C)NC(=O)[C@H](C(C)(C)C)NC(=O)[C@H](Cc2c[nH]c3ccccc23)NC(=O)[C@H](CCC(N)=O)NC1=O [Cyclorasin 9A44b] (cyclo(W[Tle][dA]RRR[d2Nal]R[Dap](X4)[dNle]Q)) | – | IC50 [1]: 0.52 ± 0.16 µM |
| CC(C)[C@H]1NC(=O)[C@H](C(C)(C)C)NC(=O)[C@H](Cc2c[nH]c3ccccc23)NC(=O)[C@H](CCC(N)=O)NC(=O)[C@@H](CCCNC(=N)N)NC(=O)[C@H](Cc2ccc(F)c(F)c2)NC(=O)[C@H](CCCNC(=N)N)NC(=O)[C@@H](Cc2ccc3ccccc3c2)NC(=O)[C@H](CCCNC(=N)N)NC(=O)[C@H](CCCNC(=N)N)NC(=O)[C@H](CCCNC(=N)N)NC1=O [Cyclorasin 9A50] (cyclo([Phe(3,4-F2)][dR]QW[Tle][dV]RRR[d2Nal]R)) | – | IC50 [1, 2]: > 1 µM |
| C[C@H]1NC(=O)[C@H]([C@@H](C)O)NC(=O)[C@H](Cc2c[nH]c3ccccc23)NC(=O)[C@H](CCC(N)=O)NC(=O)[C@@H](CCCNC(=N)N)NC(=O)[C@H](Cc2ccc(F)c(F)c2)NC(=O)[C@H](CCCNC(=N)N)NC(=O)[C@@H](Cc2ccc3ccccc3c2)NC(=O)[C@H](CCCNC(=N)N)NC(=O)[C@H](CCCNC(=N)N)NC(=O)[C@H](CCCNC(=N)N)NC1=O [Cyclorasin 9A52] (cyclo([Phe(3,4-F2)][dR]QWT[dA]RRR[d2Nal]R)) | – | IC50 [1, 2]: > 1 µM |

Second part, led by results:

| IC50 (H1299 lung cancer cells) [µM] | SMILES | other results |
| --- | --- | --- |
| 13 ± 2 | CCCC[C@H]1NC(=O)[C@H](Cc2ccc(F)cc2)NC(=O)[C@H](CCCNC(=N)N)NC(=O)[C@@H](Cc2ccc3ccccc3c2)NC(=O)[C@H](CCCNC(=N)N)NC(=O)[C@H](CCCNC(=N)N)NC(=O)[C@H](CCC(=O)N[C@@H](CCCCN)C(N)=O)NC(=O)[C@@H](C)NC(=O)[C@H]([C@@H](C)O)NC(=O)[C@H](Cc2c[nH]c3ccccc23)NC(=O)[C@H](CCC(N)=O)NC1=O [Cyclorasin 9A1] (cyclo(RR[d2Nal]R[Phe(4-F)][dNle]QWT[dA]E([Lys-NH2]))) | – |
| 10 ± 3 | CC(C)C[C@H]1NC(=O)[C@H](Cc2ccc(F)cc2)NC(=O)[C@H](CCCNC(=N)N)NC(=O)[C@@H](Cc2ccc3ccccc3c2)NC(=O)[C@H](CCCNC(=N)N)NC(=O)[C@H](CCCNC(=N)N)NC(=O)[C@@H](CCCNC(=N)N)NC(=O)[C@@H](C)NC(=O)[C@H]([C@@H](C)O)NC(=O)[C@H](Cc2c[nH]c3ccccc23)NC(=O)[C@H](CCC(N)=O)NC1=O [Cyclorasin 9A10] (cyclo(WT[dA][dR]RR[d2Nal]R[Phe(4-F)][dL]Q)) | – |
| 9.6 ± 1.3 | CCCC[C@H]1NC(=O)[C@H](Cc2ccccc2)NC(=O)[C@H](CCCNC(=N)N)NC(=O)[C@@H](Cc2ccc3ccccc3c2)NC(=O)[C@H](CCCNC(=N)N)NC(=O)[C@H](CCCNC(=N)N)NC(=O)[C@@H](CCCNC(=N)N)NC(=O)[C@@H](C)NC(=O)[C@H]([C@@H](C)O)NC(=O)[C@H](Cc2c[nH]c3ccccc23)NC(=O)[C@H](CCC(N)=O)NC1=O [Cyclorasin 9A12] | – |
| 12 ± 1 | CCCC[C@H]1NC(=O)[C@H](Cc2ccc(F)cc2)NC(=O)[C@H](CCCNC(=N)N)NC(=O)[C@@H](Cc2ccc3ccccc3c2)NC(=O)[C@H](CCCNC(=N)N)NC(=O)[C@H](CCCNC(=N)N)NC(=O)[C@@H](CCCNC(=N)N)NC(=O)[C@@H](CC(C)C)NC(=O)[C@H]([C@@H](C)O)NC(=O)[C@H](Cc2c[nH]c3ccccc23)NC(=O)[C@H](CCC(N)=O)NC1=O [Cyclorasin 9A15] (cyclo(WT[dL][dR]RR[d2Nal]R[Phe(4-F)][dNle]Q)) | – |
| 11 ± 3 | CCCC[C@H]1NC(=O)[C@H](Cc2ccc(F)cc2)NC(=O)[C@H](CCCNC(=N)N)NC(=O)[C@@H](Cc2ccc3ccccc3c2)NC(=O)[C@H](CCCNC(=N)N)NC(=O)[C@H](CCCNC(=N)N)NC(=O)[C@H](CCCNC(=N)N)NC(=O)[C@@H](C(C)C)NC(=O)[C@H](C(C)(C)C)NC(=O)[C@H](Cc2c[nH]c3ccccc23)NC(=O)[C@H](CCC(N)=O)NC1=O [Cyclorasin 9A48] (cyclo(W[Tle][dV]RRR[d2Nal]R[Phe(4-F)][dNle]Q)) | – |
| 6.3 ± 0.4 | CCCC[C@H]1NC(=O)[C@H](Cc2ccc(F)cc2)NC(=O)[C@H](CCCNC(=N)N)NC(=O)[C@@H](Cc2ccc3ccccc3c2)NC(=O)[C@H](CCCNC(=N)N)NC(=O)[C@H](CCCNC(=N)N)NC(=O)[C@H](CCCNC(=N)N)NC(=O)[C@@H](C)NC(=O)[C@H]([C@@H](C)O)NC(=O)[C@H](Cc2ccc3ccccc3c2)NC(=O)[C@H](CCC(N)=O)NC1=O [Cyclorasin 9A49] (cyclo([2Nal]T[dA]RRR[d2Nal]R[Phe(4-F)][dNle]Q)) | – |
| 6.7 ± 0.8 | CCCC[C@H]1NC(=O)[C@H](Cc2ccc(F)c(F)c2)NC(=O)[C@H](CCCNC(=N)N)NC(=O)[C@@H](Cc2ccc3ccccc3c2)NC(=O)[C@H](CCCNC(=N)N)NC(=O)[C@H](CCCNC(=N)N)NC(=O)[C@@H](CCCNC(=N)N)NC(=O)[C@@H](C(C)C)NC(=O)[C@H](C(C)(C)C)NC(=O)[C@H](Cc2c[nH]c3ccccc23)NC(=O)[C@H](CCC(N)=O)NC1=O [Cyclorasin 9A51] (cyclo(W[Tle][dV][dR]RR[d2Nal]R[Phe(3,4-F2)][dNle]Q)) | anti-proliferative activity against lung cancer cells (in words) (H1299 lung cancer cells): less effective |
| 13 ± 1 | CCCC[C@H]1NC(=O)[C@H](Cc2ccc(F)cc2)NC(=O)[C@H](CCCNC(=N)N)NC(=O)[C@@H](Cc2ccc3ccccc3c2)NC(=O)[C@H](CCCNC(=N)N)NC(=O)[C@H](CCCNC(=N)N)NC(=O)[C@@H](CCCNC(=N)N)NC(=O)[C@@H](C(C)C)NC(=O)[C@H](C(C)(C)C)NC(=O)[C@H](Cc2c[nH]c3ccccc23)NC(=O)[C@H](CCC(N)=O)NC1=O [Cyclorasin 9A53] (cyclo(W[Tle][dV][dR]RR[d2Nal]R[Phe(4-F)][dNle]Q)) | – |
| 7.2 ± 0.4 | CCCC[C@H]1NC(=O)[C@H](Cc2ccc(F)c(F)c2)NC(=O)[C@H](CCCNC(=N)N)NC(=O)[C@@H](Cc2ccc3ccccc3c2)NC(=O)[C@H](CCCNC(=N)N)NC(=O)[C@H](CCCNC(=N)N)NC(=O)[C@H](CCCNC(=N)N)NC(=O)[C@@H](C(C)C)NC(=O)[C@H](C(C)(C)C)NC(=O)[C@H](Cc2c[nH]c3ccccc23)NC(=O)[C@H](CCC(N)=O)NC1=O [Cyclorasin 9A54] (cyclo(W[Tle][dV]RRR[d2Nal]R[Phe(3,4-F2)][dNle]Q)) | anti-proliferative activity against lung cancer cells (in words) (H1299 lung cancer cells): less effective |
| 12 ± 1 | CCCC[C@H]1NC(=O)[C@H](Cc2ccc(F)cc2)NC(=O)[C@H](CCCNC(=N)N)NC(=O)[C@H](Cc2ccc3ccccc3c2)NC(=O)[C@H](CCCNC(=N)N)NC(=O)[C@H](CCCNC(=N)N)NC(=O)[C@H](CCCNC(=N)N)NC(=O)[C@@H](C)NC(=O)[C@H]([C@@H](C)O)NC(=O)[C@H](Cc2c[nH]c3ccccc23)NC(=O)[C@H](CCC(N)=O)NC1=O [Cyclorasin 9A55] (cyclo(WT[dA]RRR[2Nal]R[Phe(4-F)][dNle]Q)) | – |
